Test results: PMC6155662, “Trypanocidal Activity of Quinoxaline 1,4 Di-N-oxide Derivatives as Trypanothione Reductase Inhibitors” (Molecules : A Journal of Synthetic Chemistry and Natural …, 2017)
Where two headings read alike, the source gives them in different places.

Key:
recombinant T. cruzi TR = target: T1, recombinant T. cruzi TR (Trypanosoma cruzi, UniProt P28593); experiment: TR enzyme inhibition (NADPH consumption at 340 nm); type: biochemical; conditions: for inhibition at 20 µM: inhibitor 20 µM; for inhibition at 40 µM: inhibitor 40 µM; for inhibition at 60 µM: inhibitor 60 µM; for inhibition at 80 µM: inhibitor 80 µM, T-085 precipitates in the assay at 80 µM; for inhibition at 100 µM: inhibitor 100 µM; for inhibitory activity on TR: even when tested at 100 μM, 100 μM or 40 μM TS2
T1 construct: made in house
T1 sequence (P28593 whole entry): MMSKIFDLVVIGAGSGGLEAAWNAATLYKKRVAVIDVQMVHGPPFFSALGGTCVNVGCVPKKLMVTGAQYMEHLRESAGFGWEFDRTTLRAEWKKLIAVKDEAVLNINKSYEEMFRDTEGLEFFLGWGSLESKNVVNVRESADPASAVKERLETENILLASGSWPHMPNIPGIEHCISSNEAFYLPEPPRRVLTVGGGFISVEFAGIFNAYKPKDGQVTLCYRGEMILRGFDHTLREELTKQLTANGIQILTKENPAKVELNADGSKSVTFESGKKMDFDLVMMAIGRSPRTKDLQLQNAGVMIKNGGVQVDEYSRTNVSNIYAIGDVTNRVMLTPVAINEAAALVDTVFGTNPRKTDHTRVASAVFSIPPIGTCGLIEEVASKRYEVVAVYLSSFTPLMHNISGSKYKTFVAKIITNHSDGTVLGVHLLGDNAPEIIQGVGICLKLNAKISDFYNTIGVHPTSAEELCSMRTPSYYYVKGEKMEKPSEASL
Procedure: Trypanothione disulfide (TS2) and recombinant T. cruzi TR were prepared following published procedures. Recombinant human glutathione reductase (GR) was kindly provided by Dr. Heiner Schirmer, Heidelberg Germany. Stock solutions (5 mM) of the inhibitors were prepared in DMSO. The kinetic analyses were conducted using a Jasco V650 spectrophotometer. All enzymatic tests were performed in polystyrene optical cuvettes (10 × 4 × 45 mm). TR activity was measured at 25 °C in a total volume of 1 mL TR assay buffer (40 mM HEPES, 1 mM EDTA, pH 7.5 [47]) containing 100 μM NADPH and 5–10 mU enzyme in the absence and presence of the inhibitor. Each assay contained a total of 5% DMSO. The reaction was started by adding TS2 and NADPH consumption was followed at 340 nm.
Five compound concentrations were used ranging from 100–5 μM. All measurements were performed twice in three independent series. Enzyme activity was plotted versus increasing inhibitor concentrations. IC50 values were calculated using the four-parameter equation model 205 and the option “unlock” from the XLfit add-in (IDBS, Guildford, United Kingdom) for Excel (Microsoft Corporation, Redmond, WA, USA).
The type of inhibition and the inhibitor constants were derived from Lineweaver-Burk plot. The activity of TR was measured in the absence and presence of two to three constant concentrations of inhibitor varying the concentration of TS2 (20, 40, 60, 100 and 200 µM). The inhibitory constant Ki was calculated from the direct plot using nonlinear least-squares data fitting in Excel spreadsheet.

[1] = tested on: bloodstream trypomastigotes NINOA and INC-5 of T. cruzi; parameters: method as in PMID 24691716; conditions: 5 µg/mL (M2 = 14.73 µM, M8 = 17.98 µM, M6 = 14.91 µM); NINOA and INC-5 bloodstream trypomastigotes; cited from earlier work
[2] = tested on: T. cruzi INC-5 epimastigotes; experiment: Viability (MTT) assay on T. cruzi epimastigotes; type: cell-based, Trypanosoma cruzi; conditions: Trypanosoma cruzi, 24 h, mean and SD of triplicate
Procedure: In this study, two strains of T. cruzi isolated in Mexico were used. […] Epimastigotes were cultured in vitro in liver infusion-tryptose (LIT) medium supplemented with 10% heat inactivated fetal bovine serum (FBS) (Gibco) and 100 U/mL penicillin-streptomycin (In vitro S.A.), and incubated at 27 °C. CD1 mice, aged 6–8 weeks, were infected with T. cruzi to obtain bloodstream trypomastigote samples.
Viability assays of T. cruzi epimastigotes using 3-(4,5-dimethylthiazol-2-yl)-2,5-diphenyltetrazolium bromide (MTT) were performed. Briefly, the parasites were harvested during the exponential growth phase for a period of five days. In a 96-well microplate 1x10^6 epimastigotes were deposited in brain-heart infusion (BHI) medium supplemented with 10% FBS and 100 U/mL antibiotic-antifungal mixture (Gibco). […] Each well reached a final volume of 100 µL. Each condition was assessed in triplicate. The microplate was incubated for 24 h at 27 °C in darkness. Afterwards, 10 μL of a 5 mg/mL MTT solution was added and the plate was incubated for 20 h at 27 °C. Then 200 μL of 10% dodecyl sulfate (SDS)/0.1% HCl solution was added to dissolve formazan salts; the plate was incubated an additional 4 h. Finally, the plate was read at 570 nm in a spectrophotometer (Multiskan EX Thermo Electron, Taipei, Taiwan). The amount of viable cells was proportional to the amount of formazan produced. […] Later the results were converted to micromolar units. […] As a […] control, parasites were incubated only in culture medium with a 1% DMSO concentration, corresponding to the highest sample dilution of DMSO [34, 35, 36].

[3] = Cytotoxicity assay (Alamar Blue) on macrophages; type: cell-based, murine; conditions: mouse, J774A.1 macrophages, mean and SD of triplicate
Procedure: The murine macrophage cell line J774.A1 was maintained in culture flasks with RPMI 1640 medium supplemented with 10% FBS, 1% MEM-NEAA medium (Gibco) and 100 U/mL antibiotic-antifungal mixture (Gibco). Cells were incubated at 37 °C with 5% CO2 and humidity. Trypsinized J774.A1 macrophages were washed and viability was assessed by the trypan blue dye (Sigma-Aldrich, Toluca, Edo de Mexico, Mexico) exclusion assay. In a 96-well microplate, 50,000 macrophages were seeded per well and a dose-response assay was performed. Compounds were evaluated using six-fold serial dilutions ranging from 100 µg/mL to 0.3 µg/mL of final concentration. Each compound was tested in triplicate. After 20 h incubation, Alamar Blue was added (10% v/v) and cells were incubated for an additional 4 h period. Results were obtained as previously described and CC50 was calculated. As a negative control of cytotoxicity, cells were incubated only in the presence of 0.1% DMSO [39, 40].

[4] = tested on: T. cruzi bloodstream trypomastigotes INC-5 strain; experiment: microbe, parasite or virus in culture; type: cell-based; conditions: Trypanosoma cruzi; 50 μg/mL, 24 h at 4 °C, infected mouse blood; read-out: % Lysis at 50 μg/mL INC-5 Strain
Procedure: (§1) In this study, two strains of T. cruzi isolated in Mexico were used. T. cruzi NINOA strain (MHOM/MX/1994/NINOA) was obtained from a patient with acute Chagas disease and T. cruzi INC-5 (MHOM/MX/1994/INC5) was isolated from a patient in the chronic phase of the disease. Epimastigotes were cultured in vitro in liver infusion-tryptose (LIT) medium supplemented with 10% heat inactivated fetal bovine serum (FBS) (Gibco) and 100 U/mL penicillin-streptomycin (In vitro S.A.), and incubated at 27 °C. CD1 mice, aged 6–8 weeks, were infected with T. cruzi to obtain bloodstream trypomastigote samples. Animal experiments were performed according to Norma Oficial Mexicana (NOM-062-Z00-1999) published on 22 August, 2009.
(§2) CD1 female mice 6–8 weeks old were infected with T. cruzi bloodstream trypomastigotes of the INC-5 and NINOA strains. The course of infection continued for 4–6 weeks. At the peak of parasitemia blood was obtained by cardiac puncture using sodium heparin as an anticoagulant. The blood was adjusted to 1 × 10^6 bloodstream trypomastigotes/mL.
(§3) In each well of the 96-well plate, 195 μL of infected blood and 5 μL of quinoxaline 1,4-di-N-oxide derivatives or reference drug dilutions were seeded, with each well reaching a final volume of 200 µL. Each assay was performed in triplicate. Initially, all compounds were tested at 50 μg/mL. […] As a negative control of lysis, wells with untreated blood trypomastigotes were used, and as a positive control, wells with the reference drugs were used. The microplates were incubated at 4 °C for 24 h. Bloodstream trypomastigotes were quantified by the method of Brener-Pizzi, 5 μL of blood were placed on a slide and covered with a coverslip 13 × 13 mm. The mobile protozoa were counted in 15 fields at 40× magnification using an optical microscope. The percentage lysis was determined by comparing the remaining trypomastigotes against the negative control. LC50 was determined with the Probit statistical tool. The results were later converted to micromolar units.

[5] = tested on: T. cruzi bloodstream trypomastigotes NINOA strain; experiment: microbe, parasite or virus in culture; type: cell-based; conditions: Trypanosoma cruzi; 50 μg/mL, 24 h at 4 °C, infected mouse blood; read-out: % Lysis at 50 μg/mL NINOA Strain
Procedure: as §1, §2, §3

TR = conditions: known TR inhibitor, quoted for comparison; no reference given; cited from earlier work
[6] = 40 µM TS2, read-out: % Inhibition of TR at 40 µM [TS2]
[7] = 100 µM TS2, read-out: % Inhibition of TR at 100 µM [TS2]

Row | inhibition at 40 µM (recombinant T. cruzi TR; [6]) [%] | inhibition at 40 µM (recombinant T. cruzi TR; [7]) [%] | inhibition at 100 µM (recombinant T. cruzi TR; [6]) [%] | inhibition at 100 µM (recombinant T. cruzi TR; [7]) [%] | IC50 [2] [µM] | Compound | % lysis at 5 µg/mL [1] | CC50 at 24 h [3] [µM] | killing at 50 µg/mL [4] [%] | killing at 50 µg/mL [5] [%] | further results
1 | 9 | 10 | 23.8 | 19.3 | – | COC(=O)c1ccc2c(c1)[n+]([O-])c(C(=O)c1ccccc1)c(C)[n+]2[O-] [Compound T-003] | about 50% | – | – | – | inhibition at 20 µM (recombinant T. cruzi TR; [6]): 6.6%; inhibition at 20 µM (recombinant T. cruzi TR; [7]): 6%; inhibition at 60 µM (recombinant T. cruzi TR; [6]): 14.8%; inhibition at 60 µM (recombinant T. cruzi TR; [7]): 12%; inhibition at 80 µM (recombinant T. cruzi TR; [6]): 20.5%; inhibition at 80 µM (recombinant T. cruzi TR; [7]): 18%
2 | 0 | 0 | 7.5 | 0 | – | COC(=O)c1ccc2c(c1)[n+]([O-])c(C(=O)OC(C)(C)C)c(C)[n+]2[O-] [Compound T-021] | about 50% | – | – | – | inhibitory activity on TR (recombinant T. cruzi TR): no or negligible inhibitory activity
3 | 0 | 0 | 0 | 0 | – | COC(=O)c1ccc2c(c1)[n+]([O-])c(C(N)=O)c(C)[n+]2[O-] [Compound T-044] | about 50% | – | – | – | inhibitory activity on TR (recombinant T. cruzi TR): no or negligible inhibitory activity
4 | – | – | – | – | > 130 | CCCOC(=O)c1ccc2c(c1)[n+]([O-])c(C(=O)Nc1ccccc1)c(C)[n+]2[O-] [Compound T-125, n-Propyl 2-phenylamide-3-methylquinoxaline-7-carboxylate 1,4-di-N-oxide] | – | > 261 | 0 | 35.6 ± 3.6 | –
5 | – | – | – | – | > 163 | CCCOC(=O)c1ccc2c(c1)[n+]([O-])c(C(C)=O)c(C)[n+]2[O-] [Compound T-126, n-Propyl 2-acetyl-3-methylquinoxaline-7-carboxylate 1,4-di-N-oxide] | – | > 327 | 0 | 17.7 ± 3.1 | –
6 | – | – | – | – | 238 ± 11.5 | CCCOC(=O)c1ccc2c(c1)[n+]([O-])c(C(N)=O)c(C)[n+]2[O-] [Compound T-130, n-Propyl 2-amide-3-methylquinoxaline-7-carboxylate 1,4-di-N-oxide] | – | > 326 | 0.69 ± 1.2 | 4.65 ± 3.4 | –
7 | – | – | – | – | 8.74 ± 3.8 | CC1CS(=O)(=O)CCN1/N=C/c1ccc([N+](=O)[O-])o1 (stereo not shown) [Nfx, nifurtimox, reference compound] | – | 201 ± 12.5 | 62.6 ± 3.9 | 67.3 ± 5.4 | –
8 | – | – | – | – | – | CCN(CC)CCCC(C)Nc1c2ccc(Cl)cc2nc2ccc(OC)cc12 (stereo not shown) [mepacrine] | – | – | – | – | Ki (TR): 19 µM
